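Where inhibition never reached the appropriate level, the endpoint shown equals the highest concentration tested. Otherwise, values were interpolated linearly from a five-concentration, 48-hour dose response in 96-well plates. At the GI50, growth is halved.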 Active and inactive are the calls of the source. No stated cut-off is given here; in the data, active = GI50 up to about 1.1 µM and inactive = higher.
Assays:
Test in all cases: DTP human tumour cell line panel, 48 h
[1] = tested on: NCI-H226
[2] = tested on: RXF 393
[3] = tested on: Hs-578T
[4] = tested on: MDA-MB-231
[5] = tested on: OVCAR-5
[6] = tested on: SN12C
[7] = tested on: MOLT-4
[8] = tested on: UACC-257
[9] = tested on: OVCAR-4
[10] = tested on: K562
[11] = tested on: SF-539
[12] = tested on: MDA-MB-435
[13] = tested on: KM12
[14] = tested on: TK-10
[15] = tested on: PC-3
[16] = tested on: SK-MEL-2
[17] = tested on: MCF7
[18] = tested on: SW-620
[19] = tested on: CAKI-1
[20] = tested on: IGROV-1
[21] = tested on: EKVX
[22] = tested on: M14
[23] = tested on: HCT-15
[24] = tested on: BT-549
[25] = tested on: UACC-62
[26] = tested on: OVCAR-8
[27] = tested on: CCRF-CEM
[28] = tested on: ACHN
[29] = tested on: COLO 205
[30] = tested on: SK-OV-3
[31] = tested on: RPMI-8226
[32] = tested on: 786-0
[33] = tested on: SNB-75
[34] = tested on: SNB-19
[35] = tested on: NCI/ADR-RES
[36] = tested on: NCI-H522
[37] = tested on: HOP-92
[38] = tested on: HT-29
[39] = tested on: Malme-3M
[40] = tested on: HCT-116
[41] = tested on: MDA-N
[42] = tested on: LOX IMVI
[43] = tested on: HCC 2998
[44] = tested on: SF-268
[45] = tested on: A549
[46] = tested on: NCI-H460
[47] = tested on: HL-60
[48] = tested on: SK-MEL-5
[49] = tested on: A498
[50] = tested on: SK-MEL-28
[51] = tested on: U-251
[52] = tested on: HOP-62

## CN(C)c1ccc(-c2c(C#N)c(O)n(NS(=O)(=O)c3ccccc3)c(=O)c2C#N)cc1
[1]
  GI50: > 100 µM (inactive)
[2]
  GI50: > 100 µM (inactive)
[3]
  GI50: > 100 µM (inactive)
[4]
  GI50: > 100 µM (inactive)
[5]
  GI50: 0.912 µM (active)
[6]
  GI50: > 100 µM (inactive)
[7]
  GI50: > 100 µM (inactive)
[8]
  GI50: > 100 µM (inactive)
[9]
  GI50: > 100 µM (inactive)
[10]
  GI50: > 100 µM (inactive)
[11]
  GI50: > 100 µM (inactive)
[12]
  GI50: > 100 µM (inactive)
[13]
  GI50: > 100 µM (inactive)
[14]
  GI50: > 100 µM (inactive)
[15]
  GI50: > 100 µM (inactive)
[16]
  GI50: > 100 µM (inactive)
[17]
  GI50: > 100 µM (inactive)
[18]
  GI50: > 100 µM (inactive)
[19]
  GI50: > 100 µM (inactive)
[20]
  GI50: > 100 µM (inactive)
[21]
  GI50: > 100 µM (inactive)
[22]
  GI50: 0.643 µM (active)
[23]
  GI50: > 100 µM
[24]
  GI50: > 100 µM (inactive)
[25]
  GI50: > 100 µM (inactive)
[26]
  GI50: > 100 µM (inactive)
[27]
  GI50: > 100 µM (inactive)
[28]
  GI50: > 100 µM (inactive)
[29]
  GI50: > 100 µM (inactive)
[30]
  GI50: 0.377 µM (active)
[31]
  GI50: > 100 µM (inactive)
[32]
  GI50: > 100 µM (inactive)
[33]
  GI50: > 100 µM (inactive)
[34]
  GI50: > 100 µM (inactive)
[35]
  GI50: > 100 µM (inactive)
[36]
  GI50: > 100 µM (inactive)
[37]
  GI50: > 100 µM (inactive)
[38]
  GI50: > 100 µM (inactive)
[39]
  GI50: > 100 µM (inactive)
[40]
  GI50: > 100 µM (inactive)
[41]
  GI50: > 100 µM (inactive)
[42]
  GI50: > 100 µM (inactive)
[43]
  GI50: > 100 µM (inactive)
[44]
  GI50: > 100 µM (inactive)
[45]
  GI50: > 100 µM (inactive)
[46]
  GI50: > 100 µM (inactive)
[47]
  GI50: > 100 µM (inactive)
[48]
  GI50: > 100 µM (inactive)
[49]
  GI50: > 100 µM (inactive)
[50]
  GI50: > 100 µM (inactive)
[51]
  GI50: > 100 µM (inactive)
[52]
  GI50: > 100 µM (inactive)
